Results: ChEMBL document CHEMBL1201862, “PubChem BioAssay data set” (2004)
Active and inactive are the calls of the source.

Experiments:
[1] = target: T1, Short transient receptor potential channel 4 (Mus musculus, UniProt Q9QUQ5); test: block of DAMGO-driven TRPC4 calcium entry – cell-based, HEK293 TRPC4/mu-opioid, Fluo-4 calcium, dose response (AID 434942); type: functional;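 also: potency of inhibitors blocking the TRPC4 calcium response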
T1 sequence (Q9QUQ5 whole entry): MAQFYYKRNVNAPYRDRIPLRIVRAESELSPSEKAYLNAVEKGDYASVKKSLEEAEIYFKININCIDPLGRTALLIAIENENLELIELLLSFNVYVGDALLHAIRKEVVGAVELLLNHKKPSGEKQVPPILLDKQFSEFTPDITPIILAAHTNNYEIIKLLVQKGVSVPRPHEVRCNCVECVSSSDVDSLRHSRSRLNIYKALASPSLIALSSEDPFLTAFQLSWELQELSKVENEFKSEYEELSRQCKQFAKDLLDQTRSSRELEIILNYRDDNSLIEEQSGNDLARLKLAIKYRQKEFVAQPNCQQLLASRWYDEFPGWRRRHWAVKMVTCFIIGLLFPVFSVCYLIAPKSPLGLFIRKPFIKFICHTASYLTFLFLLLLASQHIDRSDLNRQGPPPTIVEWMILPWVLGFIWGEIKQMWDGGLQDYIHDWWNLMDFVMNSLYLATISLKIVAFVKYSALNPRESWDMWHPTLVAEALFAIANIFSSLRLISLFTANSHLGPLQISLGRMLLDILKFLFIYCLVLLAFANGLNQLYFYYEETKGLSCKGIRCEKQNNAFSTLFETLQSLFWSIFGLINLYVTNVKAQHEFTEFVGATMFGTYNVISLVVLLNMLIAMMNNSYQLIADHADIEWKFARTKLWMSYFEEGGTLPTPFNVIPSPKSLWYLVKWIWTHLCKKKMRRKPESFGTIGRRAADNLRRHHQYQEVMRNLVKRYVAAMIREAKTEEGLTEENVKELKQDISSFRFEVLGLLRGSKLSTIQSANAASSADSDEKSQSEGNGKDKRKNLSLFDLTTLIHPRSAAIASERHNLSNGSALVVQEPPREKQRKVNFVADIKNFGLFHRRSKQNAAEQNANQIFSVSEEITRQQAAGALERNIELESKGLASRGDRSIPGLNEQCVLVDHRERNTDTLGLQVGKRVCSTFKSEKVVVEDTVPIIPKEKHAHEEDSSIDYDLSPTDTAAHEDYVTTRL

Coagulation factor XII = target: T2, Coagulation factor XII (Homo sapiens, UniProt P00748); type: functional;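 also: activated factor XIIa alpha cleaving a fluorogenic AMC peptide substrate; inhibitor potency from loss of enzyme activity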
T2 sequence (P00748 whole entry): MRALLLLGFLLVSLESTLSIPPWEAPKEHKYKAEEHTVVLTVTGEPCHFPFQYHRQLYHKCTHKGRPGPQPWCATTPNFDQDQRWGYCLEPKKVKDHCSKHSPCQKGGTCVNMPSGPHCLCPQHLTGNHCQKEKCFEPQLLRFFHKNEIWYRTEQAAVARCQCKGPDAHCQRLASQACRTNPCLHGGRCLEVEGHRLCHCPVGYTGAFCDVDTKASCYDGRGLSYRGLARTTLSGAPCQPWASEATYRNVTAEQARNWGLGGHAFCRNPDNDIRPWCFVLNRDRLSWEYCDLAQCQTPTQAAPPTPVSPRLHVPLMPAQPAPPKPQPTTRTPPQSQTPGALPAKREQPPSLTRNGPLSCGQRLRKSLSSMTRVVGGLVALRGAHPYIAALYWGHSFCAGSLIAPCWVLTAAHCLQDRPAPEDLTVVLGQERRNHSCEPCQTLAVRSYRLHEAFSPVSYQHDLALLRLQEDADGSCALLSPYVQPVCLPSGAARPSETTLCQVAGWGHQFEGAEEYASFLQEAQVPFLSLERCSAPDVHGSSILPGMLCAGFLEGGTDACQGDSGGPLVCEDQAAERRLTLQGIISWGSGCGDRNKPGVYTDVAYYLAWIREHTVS

Large T antigen = Large T antigen (Simian virus 40, UniProt P03070); type: functional, Betapolyomavirus macacae;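 also: Confirmatory-stage PubChem screen for compounds that inhibit SV40 T antigen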
[2] = target: Dual specificity tyrosine-phosphorylation-regulated kinase 1A (Rattus norvegicus, UniProt Q63470); type: biochemical, Homo sapiens
HEK293 [3] = test: inhibition of NOD1-driven NF-kB reporter – cell-based, luminescence, uHTS, primary screen (AID 1578); type: functional; settings: Homo sapiens
HEK293 [4] = test: cells; type: functional, cell-based; settings: Homo sapiens
HEK293 [5] = test: cells; type: functional, cell-based; settings: Homo sapiens; remark: listed apart in the source
HEK293 [6] = test: NOD2 signaling inhibitors in MDP-stimulated cells, cell-based, uHTS, luminescence (AID 2001); type: functional; settings: Homo sapiens
[7] = target: Peroxisome proliferator-activated receptor gamma/Nuclear receptor coactivator 1 (Homo sapiens, UniProt P37231); test: TR-FRET dose response biochemical High Throughput Screening assay for agonists of the steroid receptor coactivator 1 (SRC-1) recruitment by the peroxisome proliferator-activated receptor gamma (PPAR gamma): non-selective agonists. [Related pubchem assays (depositor defined):AID1300, AID1808, AID504735, AID631]; type: protein assay
[8] = target: Peroxisome proliferator-activated receptor gamma/Nuclear receptor coactivator 3 (Homo sapiens, UniProt P37231); test: TR-FRET dose response biochemical High Throughput Screening assay for agonists of the steroid receptor coactivator 3 (SRC-3) recruitment by the peroxisome proliferator-activated receptor gamma (PPAR gamma): non-selective agonists. [Related pubchem assays: 1301 (Confirmation screen.), 1048 (Primary screen.)]; type: functional
[9] = target: Peroxisome proliferator-activated receptor gamma/Nuclear receptor coactivator 2 (Homo sapiens, UniProt P37231); test: TR-FRET dose response biochemical High Throughput Screening assay for agonists of the steroid receptor coactivator 2 (SRC-2) recruitment by the peroxisome proliferator-activated receptor gamma (PPAR gamma): non-selective agonists. [Related pubchem assays: 1297, 1032 ]; type: functional
[10] = target: T3, Lysosomal acid glucosylceramidase (Homo sapiens, UniProt P04062); test: Dose response cell-based high throughput screening assay to identify enhancers of beta-glucosidase activity. [Related pubchem assays: 784 ]; type: functional
T3 sequence (P04062 whole entry): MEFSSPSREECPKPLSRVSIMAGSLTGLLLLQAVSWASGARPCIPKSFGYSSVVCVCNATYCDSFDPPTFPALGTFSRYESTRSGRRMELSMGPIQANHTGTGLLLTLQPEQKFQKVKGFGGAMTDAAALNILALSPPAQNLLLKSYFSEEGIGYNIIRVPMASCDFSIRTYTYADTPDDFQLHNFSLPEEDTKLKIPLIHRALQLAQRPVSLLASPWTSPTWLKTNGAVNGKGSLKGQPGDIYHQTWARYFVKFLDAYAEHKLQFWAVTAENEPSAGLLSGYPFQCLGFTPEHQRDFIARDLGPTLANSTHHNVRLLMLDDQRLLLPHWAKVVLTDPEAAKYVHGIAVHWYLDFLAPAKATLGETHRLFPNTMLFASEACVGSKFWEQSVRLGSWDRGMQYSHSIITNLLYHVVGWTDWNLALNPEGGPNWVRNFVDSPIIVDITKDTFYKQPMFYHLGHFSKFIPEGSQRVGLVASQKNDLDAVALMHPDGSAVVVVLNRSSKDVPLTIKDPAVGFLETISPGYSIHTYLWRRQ

[11] = test system: Streptococcus sp. 'group A'; test: Streptococcus pyogenes SK(-)GAS viability under kanamycin – luminescence, BacTiterGlo, confirmation, counter-screen for streptokinase expression inhibitor project, dose response (AID 1900); type: functional, organism-based
Streptokinase A = target: T4, Streptokinase A (Streptococcus pyogenes serotype M1, UniProt P10520); test: viability-normalized secreted streptokinase activity reduction – plasminogen activation absorbance, OD405, dose response (AID 1914); type: functional, Streptococcus pyogenes M1 GAS;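 also: secreted streptokinase activity via plasminogen activation per viability signal from cell pellet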
T4 sequence (P10520 whole entry): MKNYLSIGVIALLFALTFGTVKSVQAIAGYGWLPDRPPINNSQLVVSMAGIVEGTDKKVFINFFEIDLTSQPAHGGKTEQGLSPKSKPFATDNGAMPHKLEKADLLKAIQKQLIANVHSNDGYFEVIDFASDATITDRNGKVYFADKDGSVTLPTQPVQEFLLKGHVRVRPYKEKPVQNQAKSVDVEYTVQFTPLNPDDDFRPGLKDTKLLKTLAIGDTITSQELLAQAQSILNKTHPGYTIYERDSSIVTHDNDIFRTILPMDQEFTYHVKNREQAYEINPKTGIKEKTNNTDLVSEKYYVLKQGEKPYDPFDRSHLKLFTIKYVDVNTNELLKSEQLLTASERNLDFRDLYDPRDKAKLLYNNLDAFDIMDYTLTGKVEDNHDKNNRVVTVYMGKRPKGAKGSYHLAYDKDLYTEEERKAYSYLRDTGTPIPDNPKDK

Streptococcus = test: GAS UMAA2166 growth inhibition – luminescence, BacTiterGlo, counter-screen for streptokinase expression inhibitor project, dose response (AID 1915); type: functional, organism-based;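 also: potency for reduction of bacterial viability or growth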
[12] = Luminescence Cell-Based Dose Retest to Confirm Inhibitors of Cancer Stem Cells. [Related pubchem assays (depositor defined):AID2717, AID2721]; type: functional; settings: Homo sapiens
[13] = viability loss of HMLE_sh_eGFP cells – cell-based, luminescence, counter-screen for HMLE_sh_ECad selective toxicity project, dose response (AID 463074); type: functional, Homo sapiens;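 also: HMLE human mammary epithelial cells expressing control shRNA against eGFP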
BJ [14] = test: BJ-TERT fibroblast viability loss – cell-based, RAS-independent, luminescence, dose response (AID 1933); type: functional; settings: Homo sapiens
BJ [15] = test: cells; type: functional, cell-based; settings: Homo sapiens
BJ [16] = test: BJ-TERT-LT-ST fibroblast viability loss – cell-based, RAS-independent, luminescence, dose response (AID 1935); type: functional; settings: Homo sapiens;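 also: BJ fibroblasts immortalized with TERT plus LT and ST oncogenes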
[17] = DRD fibroblast viability loss – cell-based, non-viral oncogenic, luminescence, dose response (AID 1934); type: functional; settings: Homo sapiens
BJ [18] = test: growth inhibition of engineered Ras-driven BJ cells – cell-based, alamar blue fluorescence, cherrypicked samples, dose response (AID 2631); type: functional; settings: Homo sapiens;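 also: confirmatory dose-response assay in RAS-dependent BJ fibroblasts engineered with TERT, LT and ST, with cytotoxicity read by fluorescence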
INS1 = test: INS-1E survival protection against cytokine death – cell-based, luminescence, retest, dose response (AID 449756); type: functional; settings: Rattus norvegicus;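 also: cell death triggered by IL-1 beta plus TNF-alpha plus IFN-gamma mixture; protective hits raise ATP signal compared with cytokine alone wells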

Peroxisome proliferator-activated receptor gamma/Nuclear receptor coactivator 3, sequence (P37231 whole entry): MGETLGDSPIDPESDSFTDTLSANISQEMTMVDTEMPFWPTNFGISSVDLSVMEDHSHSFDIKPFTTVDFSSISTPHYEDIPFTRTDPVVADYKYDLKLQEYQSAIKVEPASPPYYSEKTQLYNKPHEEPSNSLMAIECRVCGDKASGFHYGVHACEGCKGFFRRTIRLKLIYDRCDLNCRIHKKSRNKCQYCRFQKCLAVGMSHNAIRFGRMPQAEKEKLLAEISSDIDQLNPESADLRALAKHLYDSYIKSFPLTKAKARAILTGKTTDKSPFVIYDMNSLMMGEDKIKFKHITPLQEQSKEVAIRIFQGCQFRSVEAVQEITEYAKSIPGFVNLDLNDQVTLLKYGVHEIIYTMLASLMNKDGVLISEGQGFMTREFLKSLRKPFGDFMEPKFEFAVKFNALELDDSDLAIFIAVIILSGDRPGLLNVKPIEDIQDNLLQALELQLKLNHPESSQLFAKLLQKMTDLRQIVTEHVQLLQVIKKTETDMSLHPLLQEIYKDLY
Peroxisome proliferator-activated receptor gamma/Nuclear receptor coactivator 3, sequence (Q9Y6Q9 whole entry, further chain): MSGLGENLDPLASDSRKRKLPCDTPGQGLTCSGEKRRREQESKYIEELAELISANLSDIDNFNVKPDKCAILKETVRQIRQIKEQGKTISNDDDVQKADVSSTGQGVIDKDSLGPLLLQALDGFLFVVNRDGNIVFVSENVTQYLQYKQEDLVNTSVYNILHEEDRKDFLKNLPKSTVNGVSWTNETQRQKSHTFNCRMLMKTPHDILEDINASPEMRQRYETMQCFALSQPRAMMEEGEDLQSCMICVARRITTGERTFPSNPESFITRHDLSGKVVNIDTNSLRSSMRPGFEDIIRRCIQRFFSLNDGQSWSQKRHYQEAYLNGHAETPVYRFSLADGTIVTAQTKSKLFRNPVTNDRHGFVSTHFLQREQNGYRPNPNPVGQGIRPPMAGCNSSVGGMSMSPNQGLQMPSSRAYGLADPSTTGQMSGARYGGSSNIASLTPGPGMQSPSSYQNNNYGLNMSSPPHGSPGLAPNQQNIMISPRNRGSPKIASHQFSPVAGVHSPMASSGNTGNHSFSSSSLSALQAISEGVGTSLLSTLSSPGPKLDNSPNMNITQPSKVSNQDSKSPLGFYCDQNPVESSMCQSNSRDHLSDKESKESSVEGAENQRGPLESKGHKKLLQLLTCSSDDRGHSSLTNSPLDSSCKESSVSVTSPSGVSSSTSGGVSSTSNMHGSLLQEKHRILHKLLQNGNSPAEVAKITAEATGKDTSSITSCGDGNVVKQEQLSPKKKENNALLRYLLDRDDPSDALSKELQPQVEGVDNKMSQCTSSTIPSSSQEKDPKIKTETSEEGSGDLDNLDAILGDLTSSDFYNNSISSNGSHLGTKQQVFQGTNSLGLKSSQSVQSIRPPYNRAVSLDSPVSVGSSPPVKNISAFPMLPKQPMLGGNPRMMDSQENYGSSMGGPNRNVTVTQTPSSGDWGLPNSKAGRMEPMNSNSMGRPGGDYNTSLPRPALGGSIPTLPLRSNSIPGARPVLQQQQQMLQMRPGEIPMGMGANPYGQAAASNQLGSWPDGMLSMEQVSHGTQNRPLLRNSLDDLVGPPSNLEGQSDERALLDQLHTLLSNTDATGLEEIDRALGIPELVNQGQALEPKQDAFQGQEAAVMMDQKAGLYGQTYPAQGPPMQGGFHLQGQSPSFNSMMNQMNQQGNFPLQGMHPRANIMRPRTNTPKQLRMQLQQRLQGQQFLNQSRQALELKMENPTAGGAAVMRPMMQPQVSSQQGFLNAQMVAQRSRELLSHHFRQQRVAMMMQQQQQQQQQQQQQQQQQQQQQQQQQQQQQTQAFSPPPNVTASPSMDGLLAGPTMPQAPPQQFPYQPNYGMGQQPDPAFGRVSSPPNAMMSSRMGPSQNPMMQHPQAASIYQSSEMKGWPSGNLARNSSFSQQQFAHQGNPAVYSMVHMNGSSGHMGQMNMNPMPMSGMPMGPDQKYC
Peroxisome proliferator-activated receptor gamma/Nuclear receptor coactivator 1, sequence (P37231 whole entry): as the sequence (P37231 whole entry) above
Peroxisome proliferator-activated receptor gamma/Nuclear receptor coactivator 1, sequence (Q15788 whole entry, further chain): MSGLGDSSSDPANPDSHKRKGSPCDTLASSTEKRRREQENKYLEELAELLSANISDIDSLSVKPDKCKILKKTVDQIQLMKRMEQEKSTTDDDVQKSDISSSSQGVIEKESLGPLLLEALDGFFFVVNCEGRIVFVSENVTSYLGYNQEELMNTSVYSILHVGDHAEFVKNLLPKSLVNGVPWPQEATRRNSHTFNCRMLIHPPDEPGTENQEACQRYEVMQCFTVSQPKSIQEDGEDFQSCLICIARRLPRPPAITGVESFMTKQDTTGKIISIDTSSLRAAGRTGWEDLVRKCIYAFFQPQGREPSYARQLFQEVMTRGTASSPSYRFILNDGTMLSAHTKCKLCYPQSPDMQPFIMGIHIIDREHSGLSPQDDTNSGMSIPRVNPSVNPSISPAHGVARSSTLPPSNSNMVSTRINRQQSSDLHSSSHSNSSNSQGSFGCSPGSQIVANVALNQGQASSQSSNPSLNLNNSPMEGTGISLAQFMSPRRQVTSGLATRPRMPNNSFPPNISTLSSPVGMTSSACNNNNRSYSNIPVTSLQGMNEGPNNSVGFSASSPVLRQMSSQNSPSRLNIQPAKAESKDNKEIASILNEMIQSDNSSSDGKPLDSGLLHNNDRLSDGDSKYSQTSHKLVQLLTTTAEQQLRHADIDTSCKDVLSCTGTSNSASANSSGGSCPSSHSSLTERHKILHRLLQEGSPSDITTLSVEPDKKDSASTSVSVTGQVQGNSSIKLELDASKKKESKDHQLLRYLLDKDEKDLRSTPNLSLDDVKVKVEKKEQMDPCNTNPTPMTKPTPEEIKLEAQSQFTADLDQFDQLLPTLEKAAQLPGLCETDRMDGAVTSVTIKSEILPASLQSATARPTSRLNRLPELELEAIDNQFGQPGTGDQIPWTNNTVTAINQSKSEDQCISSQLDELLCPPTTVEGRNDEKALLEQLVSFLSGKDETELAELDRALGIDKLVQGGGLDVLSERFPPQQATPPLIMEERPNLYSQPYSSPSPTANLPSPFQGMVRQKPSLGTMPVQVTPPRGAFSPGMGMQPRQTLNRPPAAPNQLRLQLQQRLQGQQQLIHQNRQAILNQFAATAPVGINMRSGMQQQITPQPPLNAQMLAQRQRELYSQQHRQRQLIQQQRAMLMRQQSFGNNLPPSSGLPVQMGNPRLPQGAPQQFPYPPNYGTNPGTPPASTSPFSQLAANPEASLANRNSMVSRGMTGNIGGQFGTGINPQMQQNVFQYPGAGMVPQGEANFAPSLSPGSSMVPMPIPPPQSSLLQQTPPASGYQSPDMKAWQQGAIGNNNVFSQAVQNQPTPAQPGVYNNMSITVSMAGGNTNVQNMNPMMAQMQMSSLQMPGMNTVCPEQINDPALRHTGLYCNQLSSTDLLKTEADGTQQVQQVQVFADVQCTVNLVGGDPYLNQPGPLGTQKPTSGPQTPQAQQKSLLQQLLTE
Large T antigen, sequence (P03070 whole entry): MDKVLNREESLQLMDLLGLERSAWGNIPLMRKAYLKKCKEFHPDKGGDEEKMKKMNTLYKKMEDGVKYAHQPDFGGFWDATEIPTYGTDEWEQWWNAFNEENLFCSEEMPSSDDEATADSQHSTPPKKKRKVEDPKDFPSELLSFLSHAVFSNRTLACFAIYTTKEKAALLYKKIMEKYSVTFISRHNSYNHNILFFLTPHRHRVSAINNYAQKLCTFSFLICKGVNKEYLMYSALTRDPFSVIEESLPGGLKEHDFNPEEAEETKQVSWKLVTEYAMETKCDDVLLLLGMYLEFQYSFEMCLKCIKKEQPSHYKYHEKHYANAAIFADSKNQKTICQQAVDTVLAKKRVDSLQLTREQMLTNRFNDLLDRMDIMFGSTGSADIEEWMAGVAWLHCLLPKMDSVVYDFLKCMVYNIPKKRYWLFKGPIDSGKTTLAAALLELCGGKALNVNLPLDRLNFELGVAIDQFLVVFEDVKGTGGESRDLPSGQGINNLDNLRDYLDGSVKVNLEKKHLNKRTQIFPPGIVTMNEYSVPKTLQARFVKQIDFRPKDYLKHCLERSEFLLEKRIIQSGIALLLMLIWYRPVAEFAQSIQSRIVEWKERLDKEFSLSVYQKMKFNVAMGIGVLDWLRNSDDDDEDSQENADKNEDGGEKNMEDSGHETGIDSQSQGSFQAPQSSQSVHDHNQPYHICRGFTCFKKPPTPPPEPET

Cc1cc(-c2csc3ncnc(N4CCN(C)CC4)c23)cc(C)c1C
EC50 [1]: 1.19 µM (active)

COc1cc(CNC2CCCC2)c(Br)cc1OCc1ccccc1
EC50 [1]: 0.237 µM (active)

COCc1c(C(=O)OCc2nc(N)nc(Nc3ccccc3C)n2)oc2ccccc12
IC50 (Coagulation factor XII): > 50 µM (inactive)

Oc1ccc2c(c1)oc1cc(O)ccc12
IC50 (Large T antigen): 3.5 µM (active)
AC50 [2]: 0.754 µM (active)

CN(c1ccccc1)S(=O)(=O)c1cc(C(=O)Nc2nc3ccccc3[nH]2)ccc1Cl
EC50 (HEK293 [3]): 8.46 µM (active)
IC50 (HEK293 [4]): 5.37 µM (active)
IC50 (HEK293 [5]): > 20 µM (inactive)
IC50 (HEK293 [6]): 6.72 µM (active)

O=C(Nc1nc2c(s1)CN(Cc1ccccc1)CC2)c1cccc(S(=O)(=O)N2CCc3ccccc32)c1
EC50 [7]: 10.8 µM (inactive)
EC50 [8]: 28 µM (not active)
EC50 [9]: 14.8 µM (not active)

CCn1c(SCC(=O)N2CCN(c3ccccc3)CC2)nnc1-c1cc2cc(Cl)ccc2o1
EC50 [10]: > 50 µM (not active)
IC50 (Coagulation factor XII): > 50 µM (inactive)

CCOC(=O)C1CCCN(CC(=O)Nc2c(C(=O)OC)[nH]c3ccc(Br)cc23)C1 (stereo unspecified)
EC50 [7]: > 79.4 µM (inactive)
EC50 [8]: > 79.4 µM (not active)
EC50 [9]: > 26.5 µM (not active)

O=C(O)c1ccc(CSc2nc(-c3ccc(Cl)cc3)cc(C(F)(F)F)n2)cc1
EC50 [11]: 4.41 µM (active)
EC50 (Streptokinase A): > 150 µM (not active)
EC50 (Streptococcus): 11.7 µM (active)
AC50 [12]: 5.76 µM (active)
EC50 [1]: 5.96 µM (active)

CC(Sc1nnc(-c2ccc(Cl)cc2Cl)n1Cc1ccccc1)C(=O)Nc1nccs1 (stereo unspecified)
EC50 [7]: 10.6 µM (inactive)
EC50 [8]: 17.6 µM (not active)
EC50 [9]: > 79.4 µM (not active)

O=C(NNc1nc(-c2ccc(Cl)cc2)cs1)c1ccco1
AC50 [12]: 1.8 µM (active)
AC50 [13]: 87.8 µM (active)

COc1ccc(-c2cc(C(=O)c3c(N)n(C)c(=O)n(C)c3=O)c3ccccc3n2)cc1OC
IC50 (Coagulation factor XII): > 50 µM (inactive)

CC1=C(C(=O)Nc2ccccc2)C(c2ccco2)C(C#N)=C(SCc2ccccc2)N1 (stereo unspecified)
AC50 [12]: 17.5 µM (active)
AC50 [13]: 28.4 µM (active)

COc1ccc(N(CC(=O)Nc2ccccc2SC)S(C)(=O)=O)cc1OC
IC50 (Coagulation factor XII): > 50 µM (inactive)

COc1ccccc1N1CCN(CC(C)N(C(=O)C2CCCCC2)c2ccccn2)CC1 (stereo unspecified)
EC50 [1]: 0.335 µM (active)

c1ccc(-c2nnsc2-c2nc3ccccc3[nH]2)cc1
EC50 [7]: 10.8 µM (inactive)
EC50 [8]: 83.6 µM (not active)
EC50 [9]: 10.3 µM (not active)

O=C(NCCCn1ccnc1)c1ccc(N2CCCCCC2)c([N+](=O)[O-])c1
EC50 (BJ [14]): > 150 µM (not active)
EC50 (BJ [15]): 7.97 µM (active)
EC50 (BJ [16]): 11.4 µM (active)
EC50 [17]: 25.6 µM (active)
EC50 (BJ [18]): 3.55 µM (active)
AC50 (INS1): 6.67 µM (active)
